# Assay results: PubChem BioAssay (NCI)
#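 Growth conditions: 96-well plates. Treatment: test compound, 48 hours, 5 concentrations. Analysis: linear interpolation between bracketing concentrations; unreached endpoints set to highest concentration. GI50: concentration for 50% inhibition of growth. The concentration for full growth arrest is given as TGI.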
# Test system: HCC-2998 colon
# Experiment: NCI tumour cell line growth inhibition, 48 h
SMILES,TGI,GI50
Cc1cccc2c3ccc4c(c3n(C)c12)C(=O)C=CC4=O,> 100 µM,
COc1nc2c(cc1S(=O)(=O)c1ccccc1)CCc1c-2cnn1-c1ccccc1Cl,> 100 µM,> 100 µM
C[C@]12CCC(=O)C=C1CC[C@@H]1C2CC[C@]2(C)NC(=O)C(C#N)CC12 (some centres undefined),> 100 µM,
O=S(=O)(O)C(O)/C=C/c1ccccc1 (centres undefined),> 100 µM,
OCc1c(-c2cccc3ccccc23)sc(-c2cccc3ccccc23)c1CO,33.9 µM,
S=C1NCCN1C1=Nc2ccccc2CO1,> 100 µM,> 100 µM
CC1=C(CCCOC(=O)NCCCl)C2=C(C)C3(CC3)[C@@](C)(O)C(=O)C2=C1,7.24 µM,2.35 µM
O=c1[nH]c(=O)n(C2CC(O)C(CO)O2)cc1C#Cc1c(F)c(F)c(F)c(F)c1F (centres undefined),> 100 µM,
COC(=O)c1c(OC)cccc1C(=O)O,> 100 µM,
Cc1cccc(C(C)(C)C)c1NC(=O)C(=O)Cc1nc2ccccc2s1,> 100 µM,
O=C1c2ccccc2-c2c1c1cc3c(cc1c(=O)n2CCCCl)OCO3,> 100 µM,24.4 µM
NC1(CCCCCCCCCCC(=O)O)CNCCNCCNCCNC1,46 µM,
Clc1cccc(NC=Nc2ccc(-c3nc4ccccc4s3)cc2)c1,42.5 µM,16 µM
CCC1CCC2CCCC(C)N12 (centres undefined),> 100 µM,
COc1cc2c(c(OC)c1OC)-c1ccc(NCc3ccccc3)c(=O)cc1[C@@H](NC(C)=O)CC2,13.2 µM,0.529 µM

# Test system: RPMI-8226 leukemia
# Experiment: NCI tumour cell line growth inhibition, 48 h
SMILES,TGI,GI50
Cc1cccc2c3ccc4c(c3n(C)c12)C(=O)C=CC4=O,> 100 µM,
COc1nc2c(cc1S(=O)(=O)c1ccccc1)CCc1c-2cnn1-c1ccccc1Cl,> 100 µM,5.39 µM
C[C@]12CCC(=O)C=C1CC[C@@H]1C2CC[C@]2(C)NC(=O)C(C#N)CC12 (some centres undefined),> 100 µM,
OCc1c(-c2cccc3ccccc23)sc(-c2cccc3ccccc23)c1CO,43.7 µM,
S=C1NCCN1C1=Nc2ccccc2CO1,> 100 µM,> 100 µM
CC1=C(CCCOC(=O)NCCCl)C2=C(C)C3(CC3)[C@@](C)(O)C(=O)C2=C1,40.1 µM,8.4 µM
CCCCCCCCCCCCCCC1OC(=O)c2ccccc21 (centres undefined),> 100 µM,
O=c1[nH]c(=O)n(C2CC(O)C(CO)O2)cc1C#Cc1c(F)c(F)c(F)c(F)c1F (centres undefined),> 100 µM,
COC(=O)c1c(OC)cccc1C(=O)O,> 100 µM,
Cc1cccc(C(C)(C)C)c1NC(=O)C(=O)Cc1nc2ccccc2s1,> 100 µM,
O=C1c2ccccc2-c2c1c1cc3c(cc1c(=O)n2CCCCl)OCO3,> 100 µM,78.6 µM
NC1(CCCCCCCCCCC(=O)O)CNCCNCCNCCNC1,> 100 µM,
Clc1cccc(NC=Nc2ccc(-c3nc4ccccc4s3)cc2)c1,> 50 µM,14.4 µM
CCC1CCC2CCCC(C)N12 (centres undefined),> 100 µM,
COc1cc2c(c(OC)c1OC)-c1ccc(NCc3ccccc3)c(=O)cc1[C@@H](NC(C)=O)CC2,16.3 µM,0.531 µM

# Test system: SN12C renal
# Experiment: NCI tumour cell line growth inhibition, 48 h
SMILES,TGI,GI50
Cc1cccc2c3ccc4c(c3n(C)c12)C(=O)C=CC4=O,> 100 µM,
COc1nc2c(cc1S(=O)(=O)c1ccccc1)CCc1c-2cnn1-c1ccccc1Cl,> 100 µM,19.6 µM
O=S(=O)(O)C(O)/C=C/c1ccccc1 (centres undefined),> 100 µM,
OCc1c(-c2cccc3ccccc23)sc(-c2cccc3ccccc23)c1CO,26.8 µM,
S=C1NCCN1C1=Nc2ccccc2CO1,> 100 µM,> 100 µM
CC1=C(CCCOC(=O)NCCCl)C2=C(C)C3(CC3)[C@@](C)(O)C(=O)C2=C1,> 100 µM,3.84 µM
CCCCCCCCCCCCCCC1OC(=O)c2ccccc21 (centres undefined),75.9 µM,
O=c1[nH]c(=O)n(C2CC(O)C(CO)O2)cc1C#Cc1c(F)c(F)c(F)c(F)c1F (centres undefined),> 100 µM,
COC(=O)c1c(OC)cccc1C(=O)O,> 100 µM,
Cc1cccc(C(C)(C)C)c1NC(=O)C(=O)Cc1nc2ccccc2s1,> 100 µM,
O=C1c2ccccc2-c2c1c1cc3c(cc1c(=O)n2CCCCl)OCO3,77.6 µM,21.8 µM
NC1(CCCCCCCCCCC(=O)O)CNCCNCCNCCNC1,> 100 µM,
Clc1cccc(NC=Nc2ccc(-c3nc4ccccc4s3)cc2)c1,> 50 µM,20.4 µM
CCC1CCC2CCCC(C)N12 (centres undefined),> 100 µM,
COc1cc2c(c(OC)c1OC)-c1ccc(NCc3ccccc3)c(=O)cc1[C@@H](NC(C)=O)CC2,45.3 µM,0.629 µM

# Test system: MALME-3M melanoma
# Experiment: NCI tumour cell line growth inhibition, 48 h
SMILES,TGI,GI50
Cc1cccc2c3ccc4c(c3n(C)c12)C(=O)C=CC4=O,> 100 µM,
C[C@]12CCC(=O)C=C1CC[C@@H]1C2CC[C@]2(C)NC(=O)C(C#N)CC12 (some centres undefined),> 100 µM,
O=S(=O)(O)C(O)/C=C/c1ccccc1 (centres undefined),> 100 µM,
OCc1c(-c2cccc3ccccc23)sc(-c2cccc3ccccc23)c1CO,24.5 µM,
S=C1NCCN1C1=Nc2ccccc2CO1,> 100 µM,> 100 µM
CC1=C(CCCOC(=O)NCCCl)C2=C(C)C3(CC3)[C@@](C)(O)C(=O)C2=C1,4.22 µM,1.85 µM
CCCCCCCCCCCCCCC1OC(=O)c2ccccc21 (centres undefined),> 100 µM,
O=c1[nH]c(=O)n(C2CC(O)C(CO)O2)cc1C#Cc1c(F)c(F)c(F)c(F)c1F (centres undefined),> 100 µM,
COC(=O)c1c(OC)cccc1C(=O)O,> 100 µM,
Cc1cccc(C(C)(C)C)c1NC(=O)C(=O)Cc1nc2ccccc2s1,> 100 µM,
NC1(CCCCCCCCCCC(=O)O)CNCCNCCNCCNC1,> 100 µM,
CCC1CCC2CCCC(C)N12 (centres undefined),> 100 µM,
COc1cc2c(c(OC)c1OC)-c1ccc(NCc3ccccc3)c(=O)cc1[C@@H](NC(C)=O)CC2,40.2 µM,0.72 µM

# Test system: HL-60(TB) leukemia
# Experiment: NCI tumour cell line growth inhibition, 48 h
SMILES,TGI,GI50
Cc1cccc2c3ccc4c(c3n(C)c12)C(=O)C=CC4=O,41.9 µM,
COc1nc2c(cc1S(=O)(=O)c1ccccc1)CCc1c-2cnn1-c1ccccc1Cl,> 100 µM,4.98 µM
C[C@]12CCC(=O)C=C1CC[C@@H]1C2CC[C@]2(C)NC(=O)C(C#N)CC12 (some centres undefined),> 100 µM,
O=S(=O)(O)C(O)/C=C/c1ccccc1 (centres undefined),> 100 µM,
OCc1c(-c2cccc3ccccc23)sc(-c2cccc3ccccc23)c1CO,42.5 µM,
S=C1NCCN1C1=Nc2ccccc2CO1,> 100 µM,> 100 µM
CC1=C(CCCOC(=O)NCCCl)C2=C(C)C3(CC3)[C@@](C)(O)C(=O)C2=C1,> 100 µM,4.57 µM
